Test results from patent publication US20260263618A1, “LIPID NANOPARTICLE FORMULATIONS AND COMPOSITIONS” (CAPSTAN THERAPEUTICS, INC., priority 2023, published 2026).

Columns and labels:
[1] = Time course of ionizable cationic lipid in plasma, spleen and liver of mice, LC-MS; assay type: in vivo; settings: for plasma levels of lipid at 7 days: 2 mg/kg tLNP (F9 or BF1) targeted to mouse CD8, FIG. 13C
Experimental: To obtain more detailed data a similar experiment was conducted in mice where it was possible to obtain a time course of disappearance of the ionizable cationic lipid and the encapsulated mRNA as well. Mice were intravenously administered 2 mg/kg tLNP of composition BF1 (comprising ALC-0315) or F9 (comprising CICL1) targeted to mouse CD8 and encapsulating an anti-human CD19 CAR, and monitored through 7 days. At each timepoint, 3 mice were sacrificed, and liver, spleen, and plasma were processed for LC-MS-based detection of lipid concentration and digital PCR detection of the mRNA. In plasma, mRNA level was normalized to a known amount of mRNA spiked in a control. In spleen and liver mRNA level was normalized to mRNA for the housekeeping gene GAPDH.

[2] = Ionizable cationic lipid in plasma, liver and spleen of NHP 24 hours after tLNP, LC/MS/MS; assay type: in vivo, cynomolgus macaques
Experimental: Samples were taken from cynomolgus macaques that had been intravenously administered either BF1 or F5 tLNPs (two each) at a dosage of 3 mg mRNA/kg in the preceding example. The tLNPs were conjugated to anti-C05 mentioned in Example 2 as the targeting moiety. 24 hours after administration the animals were sacrificed and plasma, liver, and spleen tissue collected from two animals in each group and assessed by mass spectrometry for presence of these ionizable cationic lipids in order to assess biodegradability and biodistribution of these ionizable cationic lipids.
Briefly, plasma was stabilized for mass spectrometry by addition of 10 μL of formic acid per mL of K2EDTA plasma. Spleen and liver tissue were homogenized in 19 parts of homogenization buffer (50:40:10 0.1% formic acid in 1:1 methanol:acetone/10 mM ammonium formate with 0.2% formic acid/dimethylformamide (DMF)) to 1 part tissue (v/w) using a Geno/Grinder® (SPEX® SamplePrep) set to two minutes at 1500 rpms.
Calibration curves and quality control samples were prepared by spiking control matrix (plasma or homogenate) with CICL1 or ALC-0315 in DMF. The extraction was performed on wet ice by adding 300 μL of crashing solvent (0.1% formic acid in 1:1 methanol:acetonitrile) to 25 μL of sample to which 50 μL of internal standard was added (1:1 isopropyl alcohol:water). The extracts were mixed for four minutes at 1500 rpms and then centrifuged at 3000×g for ten minutes. 200 μL of supernatant was transferred to a clean 96 well plate for LC/MS/MS analysis.
Chromatography was performed on a Waters XBridge BEH C8 column (130 Å, 2.5 μm, 2.1×30 mm) using the following gradient. Mobile phase A (10 mM ammonium format in water with 0.2% formic acid) was held at 20% for 0.3 minutes before being reduced to 5% over […]. This condition was held for one minute before being returned to 80% B (0.1% formic acid in 1:1 methanol:acetonitrile) in 0.1 minutes. The column was then held at 80% B for 1.4 minutes. LC flow rate was held at 0.5 mL/min and the autosampler held at 2-8° C. The mass spectrum was obtained with a triple quadrupole apparatus using atmospheric pressure ionization (Sciex).
Quantitation was performed using a 1/X2 quadratic regression using the peak area for transition 1013.6→968A (CICL1) or 766.6-748.4 (ALC-0315) over peak area of transition 1040.6→995.4 of the internal standard.

[3] = Tolerability in non-human primates: liver enzymes ALT and AST; assay type: in vivo; settings: ionizable cationic lipid in F9 tLNP, second NHP study
Experimental: A second study was conducted with F9 tLNP to evaluate the tolerability and engineering efficiency of (1) a single administration of a CD5-targeted tLNP (humanized 5D7 targeting antibody) with an mRNA payload encoding an anti-CD19 CAR, (2) a single administration of a CD8-targeted tLNP (chimeric RPA-T8 targeting antibody) with an mRNA payload also encoding the anti-CD19 CAR, and (3) repeat administration (3 doses) of the CD5-targeted tLNP. The CD5-targeted tLNP was administered as a single dose at 3.0 mg/kg (Group 2, n=2) or as a repeat dose of 1.0 mg/kg at 72-hour intervals (Q72h) for three doses (Group 5, n=2). […] As a control, PBS was administered (Group 1, n=1). All tLNP tested in the second study utilized composition F9. […] Clinical observations, clinical pathology, and toxicology biomarkers were evaluated to assess safety and tolerability. Pharmacological assessment was carried out by flow cytometry detection of anti-CD19 CAR in immune cell subsets in peripheral blood and tissues (spleen, bone marrow, lymph node, and liver).
A third study in NHP with F9 tLNP targeted to C08 and encapsulating an mRNA encoding an anti-CD19 CAR was also conducted and the single dose liver enzyme results of all three studies (doses ranging from 3.5 to 3.0 mg mRNA/kg) compiled into single plots of AST and ALT levels for a more global assessment (FIG. 12K).

[4] = biological target: signal regulatory protein α (SIRPα) (Homo sapiens, UniProt P78324); settings: cited from earlier work
signal regulatory protein α (SIRPα), sequence (P78324 31-504): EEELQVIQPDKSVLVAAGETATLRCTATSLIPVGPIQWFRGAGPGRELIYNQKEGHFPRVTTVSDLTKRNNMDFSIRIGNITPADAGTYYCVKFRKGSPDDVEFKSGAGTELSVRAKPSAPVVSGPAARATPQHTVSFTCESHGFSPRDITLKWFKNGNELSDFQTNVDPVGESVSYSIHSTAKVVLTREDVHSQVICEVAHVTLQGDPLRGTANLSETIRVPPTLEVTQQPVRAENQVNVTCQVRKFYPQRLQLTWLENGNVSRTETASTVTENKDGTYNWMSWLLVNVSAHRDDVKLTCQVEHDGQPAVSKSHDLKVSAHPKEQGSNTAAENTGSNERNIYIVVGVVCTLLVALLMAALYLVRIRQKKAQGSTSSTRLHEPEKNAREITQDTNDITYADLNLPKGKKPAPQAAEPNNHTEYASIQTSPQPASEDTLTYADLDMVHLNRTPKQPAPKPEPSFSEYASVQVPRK

Row | lipid levels in spleen and liver throughout the 7 days ([1]; FIGS. 13D-E) | concentration remaining in blood, fold greater (than CICL1) ([2]; 24 hours after 3 mg mRNA/kg tLNP, FIG. 13B) | Molecule | plasma levels of lipid at 7 days [1] | tolerability [3] | time after administration by which levels were falling in the spleen ([1]; FIG. 13D) [h] | time after administration by which levels were falling in the liver ([1]; FIG. 13E) [h] | concentrations in blood, liver, and spleen relative to each other ([2]; 24 hours) [fold] | spleen concentration, fold less than for ALC-0315 ([2]; 24 hours) [fold] | amount of lipid present in blood, liver, and spleen ([2]; 24 hours after 3 mg mRNA/kg tLNP) | biodegradability compared with ALC-0315 ([2]; clearance data) | binding affinity to SIRPα, fold stronger than full-length CD47 protein [4] [fold]
1 | remained almost unchanged | about 6 fold | CCCCCCCCC(CCCCCC)C(=O)OCCCCCCN(CCCCO)CCCCCCOC(=O)C(CCCCCC)CCCCCCCC (stereo not drawn) [ALC-0315, [(4-Hydroxybutyl)azanediyl)di(hexane-6,1-diyl) bis(2-hexyldecanoate), reference compound] | still detected | – | – | – | – | – | – | – | –
2 | – | – | CCCCCCCCC(=O)OCC(COC(=O)CCCCCCCC)CC(=O)OCCN(CCOC(=O)CC(COC(=O)CCCCCCCC)COC(=O)CCCCCCCC)C(=O)OCCN(C)C [CICL1] | returned to baseline | well tolerated | ≤ 1 | ≤ 2 | ≤ 2 | ~35 | only very small amounts | much more biodegradable | –
3 | – | – | NYTCEVTELSREGKTVIELK (SEQ ID NO: 3) [CD47 peptide] | – | – | – | – | – | – | – | – | 10
